The text below walks through data of patent US20260209262A1, “MEMBRANE FILTRATION-ASSISTED SOLUTION PHASE OLIGONUCLEOTIDE SYNTHESIS” (EXACTMER LIMITED, priority 2022, published 2026).

Usually Solubility stands for how much of the substance goes into solution per volume.

In brackets after ≈: the same amount, converted by molar mass.

A short description of this series: Solubility of protected phosphoramidites in acetonitrile (aliquots added until a clear solution). In kind it is physicochemical. The conditions noted are these: for Solubility: 30° C. How it is done: A range of 5′-O-Dmtr-nucleoside-3′-O-(cyanoethyl-N, N-diisopropyl) phosphoramidites (FIG. 1. compounds 1-5) were studied to determine their suitability for solution-phase oligonucleotide synthesis in acetonitrile. Each compound (ca. 0.5 g) was placed in a flask with a magnetic stirrer immersed in an oil bath held at 30° C. To the flask was added acetonitrile (0.200 mL) and the contents stirred for 2 min. After this, further aliquots of acetonitrile (0.050 mL) were added, each time followed by stirring for 2 min. The volume of acetonitrile required to establish a clear solution was recorded. The solubility so determined is recorded in Table 1.

With `COc1ccc(C(OC[C@H]2O[C@@H](n3ccc(NC(C)=O)nc3=O)[C@H](OC)[C@@H]2OP(OCCC#N)N(C(C)C)C(C)C)(c2ccccc2)c2ccc(OC)cc2)cc1` (some centres unmarked) [Compound 3], the “Solubility” value is 1300 mM (≈ 1040 mg/mL).
On the same count and under the same terms, to `COc1ccc(C(OCC2OC(n3cc(C)c(=O)[nH]c3=O)CC2OP(OCCC#N)N(C(C)C)C(C)C)(c2ccccc2)c2ccc(OC)cc2)cc1` (centres unmarked) [Compound 2a] belongs 1160 mM (≈ 864 mg/mL).
Regarding `COc1ccc(C(OC[C@H]2O[C@@H](n3ccc(=O)[nH]c3=O)[C@H](OC)[C@@H]2OP(OCCC#N)N(C(C)C)C(C)C)(c2ccccc2)c2ccc(OC)cc2)cc1` (some centres unmarked) [Compound 1a], the “solubility in acetonitrile” value is 50 mM (≈ 38 mg/mL) and the “Solubility” value is 70 mM (≈ 53.3 mg/mL).
On to `COc1ccc(C(=O)n2c(=O)ccn(C3OC(COC(c4ccccc4)(c4ccc(OC)cc4)c4ccc(OC)cc4)C(OP(OCCC#N)N(C(C)C)C(C)C)C3OC)c2=O)cc1` (centres unmarked) [Compound 1d], for which the “Solubility” value was 2420 mM (≈ 2170 mg/mL).
On the same count and under the same terms, to `COc1ccc(C(OCC2OC(n3cnc4c(=O)[nH]c(NC(=O)C(C)C)nc43)C(OC)C2OP(OCCC#N)N(C(C)C)C(C)C)(c2ccccc2)c2ccc(OC)cc2)cc1` (centres unmarked) [Compound 5] belongs 1280 mM (≈ 1110 mg/mL).
Consider `COc1ccc(C(OC[C@H]2O[C@@H](n3cc(C)c(=O)n(C(=O)c4ccccc4)c3=O)C[C@@H]2OP(OCCC#N)N(C(C)C)C(C)C)(c2ccccc2)c2ccc(OC)cc2)cc1` (some centres unmarked) [Compound 2b], for which the “Solubility” value is 1530 mM (≈ 1300 mg/mL). Moreover, under “relative to unprotected 2a”, the “increase in solubility by protection of N3” value was “more than 30%”.
As to `COc1ccc(C(OC[C@H]2O[C@@H](n3ccc(=O)n(C(=O)c4ccccc4)c3=O)[C@H](OC)[C@@H]2OP(OCCC#N)N(C(C)C)C(C)C)(c2ccccc2)c2ccc(OC)cc2)cc1` (some centres unmarked) [Compound 1b], the “Solubility” value was 1920 mM (≈ 1660 mg/mL).
In the case of `COc1ccc(C(OCC2OC(n3cnc4c(NC(=O)c5ccccc5)ncnc43)C(OC)C2OP(OCCC#N)N(C(C)C)C(C)C)(c2ccccc2)c2ccc(OC)cc2)cc1` (centres unmarked) [Compound 4], the “Solubility” value worked out at 1210 mM (≈ 1070 mg/mL).
On the same count and under the same terms, for `COc1ccc(C(OCC2OC(n3ccc(=O)n(C(=O)c4ccc(C(C)(C)C)cc4)c3=O)C(OC)C2OP(OCCC#N)N(C(C)C)C(C)C)(c2ccccc2)c2ccc(OC)cc2)cc1` (centres unmarked) [Compound 1c] the value was 1740 mM (≈ 1600 mg/mL).
